# Test results as given in patent US11116771B2, “G protein-coupled receptor (GPCR) modulation by imipridones” (Oncoceutics, Inc., priority 2016, dated 2021).
# “Also recorded” adds a separate entry of the source. Read-outs that look alike come from different tables or passages of the source.
# Legend:
# [1] = test system: human cancer cells; test: Viability of human cancer cells at 72 hours post-treatment; assay type: cell-based; details: for Relative Potency*: relative to the potency of ONC201, viability of human cancer cells at 72 hours post-treatment
# [2] = test system: HCT116 cells; test: Anticancer efficacy in HCT116 cells; assay type: cell-based, human; details: HCT116 cells
# [3] = target: T1, GPR132 (Homo sapiens, UniProt Q9UNW8); test: β-arrestin recruitment GPCR reporter assay, GPR132; assay type: cell-based
# T1 sequence (Q9UNW8 1-380): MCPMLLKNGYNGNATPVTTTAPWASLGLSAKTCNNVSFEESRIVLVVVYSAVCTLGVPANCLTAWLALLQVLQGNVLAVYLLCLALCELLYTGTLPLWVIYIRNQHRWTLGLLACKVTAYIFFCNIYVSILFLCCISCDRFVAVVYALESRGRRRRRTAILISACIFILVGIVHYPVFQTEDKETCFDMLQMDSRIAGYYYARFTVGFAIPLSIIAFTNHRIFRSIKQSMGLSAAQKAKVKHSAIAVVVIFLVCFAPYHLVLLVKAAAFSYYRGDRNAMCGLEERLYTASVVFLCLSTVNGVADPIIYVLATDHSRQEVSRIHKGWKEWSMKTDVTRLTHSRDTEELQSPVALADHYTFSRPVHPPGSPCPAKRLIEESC
# [4] = target: DRD5 (Homo sapiens, UniProt P21918); test: β-arrestin recruitment GPCR reporter assay, DRD5; assay type: cell-based; details: arrestin recruitment reporter assay
# Chain of DRD5 (P21918 whole entry): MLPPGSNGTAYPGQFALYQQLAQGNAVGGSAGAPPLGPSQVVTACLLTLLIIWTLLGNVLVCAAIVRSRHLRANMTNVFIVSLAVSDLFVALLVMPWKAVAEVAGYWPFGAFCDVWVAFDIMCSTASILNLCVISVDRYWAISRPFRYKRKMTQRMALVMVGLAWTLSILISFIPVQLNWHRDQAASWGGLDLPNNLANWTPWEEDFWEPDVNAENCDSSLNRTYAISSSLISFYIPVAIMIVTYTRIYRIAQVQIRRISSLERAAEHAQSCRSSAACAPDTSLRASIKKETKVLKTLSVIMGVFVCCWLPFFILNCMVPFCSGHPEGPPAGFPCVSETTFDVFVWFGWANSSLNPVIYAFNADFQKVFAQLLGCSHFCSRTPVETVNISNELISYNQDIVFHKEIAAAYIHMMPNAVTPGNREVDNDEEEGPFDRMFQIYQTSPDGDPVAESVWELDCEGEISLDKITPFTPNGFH
# [5] = target: DRD2L (Homo sapiens, UniProt P14416); test: Gaddum/Schild analysis of arrestin recruitment to DRD2L; assay type: cell-based; details: arrestin recruitment / cAMP reporters (FIGS. 5B, 5C, 5F)
# Chain of DRD2L (P14416 whole entry): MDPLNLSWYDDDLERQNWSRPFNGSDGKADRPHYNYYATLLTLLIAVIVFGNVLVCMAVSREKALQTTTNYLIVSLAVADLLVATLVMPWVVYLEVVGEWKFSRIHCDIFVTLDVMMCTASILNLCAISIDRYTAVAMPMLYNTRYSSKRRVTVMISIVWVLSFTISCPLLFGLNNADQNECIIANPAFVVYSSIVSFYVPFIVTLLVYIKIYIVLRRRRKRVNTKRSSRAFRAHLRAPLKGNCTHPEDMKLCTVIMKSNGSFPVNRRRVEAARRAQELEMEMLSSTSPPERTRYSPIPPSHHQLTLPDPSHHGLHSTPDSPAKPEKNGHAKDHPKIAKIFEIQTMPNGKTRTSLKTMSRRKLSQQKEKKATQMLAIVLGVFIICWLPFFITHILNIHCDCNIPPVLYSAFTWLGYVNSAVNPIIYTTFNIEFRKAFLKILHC
# [6] = target: CXCR7 (Homo sapiens, UniProt P25106); test: β-arrestin recruitment GPCR reporter assay, CXCR7; assay type: cell-based
# Chain of CXCR7 (P25106 whole entry): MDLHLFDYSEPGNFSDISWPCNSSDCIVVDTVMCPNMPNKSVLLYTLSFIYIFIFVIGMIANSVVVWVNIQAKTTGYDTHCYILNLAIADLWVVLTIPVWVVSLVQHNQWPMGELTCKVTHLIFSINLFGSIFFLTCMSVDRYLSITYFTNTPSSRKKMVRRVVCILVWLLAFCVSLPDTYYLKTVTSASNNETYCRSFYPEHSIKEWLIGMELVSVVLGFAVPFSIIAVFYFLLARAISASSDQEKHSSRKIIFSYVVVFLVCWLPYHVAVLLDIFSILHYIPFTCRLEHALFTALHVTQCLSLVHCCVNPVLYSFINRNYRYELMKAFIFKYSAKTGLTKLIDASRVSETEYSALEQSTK
# [7] = test system: Staphylococcus aureus ATCC 29213; test: MIC by micro-broth dilution, S. aureus ATCC 29213; assay type: cell-based
# [8] = test system: Staphylococcus aureus ATCC 33591; test: MIC by micro-broth dilution, S. aureus ATCC 33591; assay type: cell-based
# [9] = test system: Staphylococcus aureus ATCC 700699; test: MIC by micro-broth dilution, S. aureus ATCC 700699; assay type: cell-based
# [10] = Jacob et al. 2014; Wagner et al. 2015; cited from earlier work
# [11] = Staphylococcus aureus, ATCC29213, 24 h
# [12] = Staphylococcus aureus, ATCC33591, 24 h
# [13] = Staphylococcus aureus, ATCC700699, 48 h
smiles,measurement,setting,value
O=C1C2=C(CCN(Cc3ccccc3)C2)N2CCN=C2N1CC1CCON1 (stereo not shown) [ONC222],Relative Potency*,[1],C (C Indicates a potency decrease of >2-fold of ONC201)
Cc1ccc(CN2C(=O)C3=C(CCN(Cc4ccccc4)C3)N3CCN=C23)cc1 [ONC223],Relative Potency*,[1],A (A Indicates a potency increase of >2-fold of ONC201)
O=C1C2=C(CCN(Cc3ccccc3)C2)N2CCN=C2N1CCN1CCOCC1 [ONC224],Relative Potency*,[1],A (A Indicates a potency increase of >2-fold of ONC201)
O=C1C2=C(CCN(Cc3ccccc3)C2)N2CCN=C2N1Cc1ccc(C(F)(F)F)cc1F [ONC225],Relative Potency*,[1],A (A Indicates a potency increase of >2-fold of ONC201)
O=C1C2=C(CCN(Cc3ccccc3)C2)N2CCN=C2N1Cc1cccnc1 [ONC226],Relative Potency*,[1],A (A Indicates a potency increase of >2-fold of ONC201)
O=C1C2=C(CCN(Cc3ccc(C(F)(F)F)cc3)C2)N2CCN=C2N1Cc1ccc(C(F)(F)F)cc1 [ONC227],Relative Potency*,[1],B (B Indicates potency that is within 2-fold of ONC201)
O=C1C2=C(CCN(Cc3ccc(F)cc3)C2)N2CCN=C2N1Cc1ccc(C(F)(F)F)cc1 [ONC228],Relative Potency*,[1],A (A Indicates a potency increase of >2-fold of ONC201)
COc1ccc(CN2CCC3=C(C2)C(=O)N(Cc2ccc(C(F)(F)F)cc2)C2=NCCN23)cc1 [ONC229],Relative Potency*,[1],B (B Indicates potency that is within 2-fold of ONC201)
O=C(CCCN1CCC2=C(C1)C(=O)N(Cc1ccc(C(F)(F)F)cc1)C1=NCCN12)c1ccc(F)cc1 [ONC230],Relative Potency*,[1],A (A Indicates a potency increase of >2-fold of ONC201)
O=C1C2=C(CCN(Cc3cccnc3)C2)N2CCN=C2N1Cc1ccc(C(F)(F)F)cc1 [ONC231],Relative Potency*,[1],A (A Indicates a potency increase of >2-fold of ONC201)
Cc1csc(CN2CCC3=C(C2)C(=O)N(Cc2ccc(C(F)(F)F)cc2)C2=NCCN23)n1 [ONC232],Relative Potency*,[1],B (B Indicates potency that is within 2-fold of ONC201)
O=C1C2=C(CCN(Cc3cnccn3)C2)N2CCN=C2N1Cc1ccc(C(F)(F)F)cc1 [ONC233],Relative Potency*,[1],B (B Indicates potency that is within 2-fold of ONC201)
O=C1C2=C(CCN(Cc3ccsc3)C2)N2CCN=C2N1Cc1ccc(C(F)(F)F)cc1 [ONC236],Relative Potency*,[1],A (A Indicates a potency increase of >2-fold of ONC201)
same,completeness of response,[2],"better than ONC201 but not ONC212; also recorded: same as ONC212, and better than ONC201"
same,"GPCR activity, GPR132",[3],highly selective GPR132 agonist
O=C1C2=C(CCN(CC(O)c3ccccc3)C2)N2CCN=C2N1Cc1ccc(C(F)(F)F)cc1 (stereo not shown) [ONC237],IC50,"[1]; Homo sapiens, cell line not stated, read-out: anticancer efficacy IC50",31.2 µM
same,Relative Potency*,[1],C (C Indicates a potency decrease of >2-fold of ONC201)
same,"GPCR activity, DRD5",[4],DRD5 antagonist
same,"GPCR activity, GPR132",[3],GPR132 agonist
Cc1ccccc1CN1C2=NCCN2C(=O)C2=C1CCN(Cc1ccccc1)C2 [TIC-10],antagonism of DRD2L,[5],did not inhibit
same,"GPCR activity, CXCR7",[6],CXCR7 agonist
same,MIC,"[7]; ATCC29213, wild type Staphylococcus aureus (ATCC 29213), read-out: MIC",> 100 mg/L
same,MIC90,"[7]; Staphylococcus aureus, ATCC29213, ATCC 29213, 24 hours, read-out: MIC90",> 100 mg/L
same,MIC,"[7]; Staphylococcus aureus, ATCC29213, ATCC 29213, 24 hours, read-out: MIC95",> 100 mg/L
same,MIC99,"[7]; Staphylococcus aureus, ATCC29213, ATCC 29213, 24 hours, read-out: MIC99",> 100 mg/L
same,MIC,"[7]; Staphylococcus aureus, ATCC29213, ATCC 29213, 24 hours, read-out: MIC, Visual",> 100 mg/L
same,MIC,"[8]; ATCC33591, Staphylococcus aureus (ATCC 33591), methicillin resistant, read-out: MIC",> 100 mg/L
same,MIC90,"[8]; Staphylococcus aureus, ATCC33591, ATCC 33591, 24 hours, read-out: MIC90",> 100 mg/L
same,MIC,"[8]; Staphylococcus aureus, ATCC33591, ATCC 33591, 24 hours, read-out: MIC95",> 100 mg/L
same,MIC99,"[8]; Staphylococcus aureus, ATCC33591, ATCC 33591, 24 hours, read-out: MIC99",> 100 mg/L
same,MIC,"[8]; Staphylococcus aureus, ATCC33591, ATCC 33591, 24 hours, read-out: MIC, Visual",> 100 mg/L
same,MIC,"[9]; ATCC700699, MDR Staphylococcus aureus (ATCC 700699), read-out: MIC",> 100 mg/L
same,MIC90,"[9]; Staphylococcus aureus, ATCC700699, ATCC 700699 (48 hours), read-out: MIC90",> 100 mg/L
same,MIC,"[9]; Staphylococcus aureus, ATCC700699, ATCC 700699 (48 hours), read-out: MIC95",> 100 mg/L
same,MIC99,"[9]; Staphylococcus aureus, ATCC700699, ATCC 700699 (48 hours), read-out: MIC99",> 100 mg/L
same,MIC,"[9]; Staphylococcus aureus, ATCC700699, ATCC 700699 (48 hours), read-out: MIC, Visual",> 100 mg/L
same,anti-cancer activity,[10],lacks anti-cancer activity
"CN[C@H](CC(C)C)C(=O)N[C@H]1C(=O)N[C@@H](CC(N)=O)C(=O)N[C@H]2C(=O)N[C@H]3C(=O)N[C@H](C(=O)N[C@H](C(=O)O)c4cc(O)cc(O)c4-c4cc3ccc4O)[C@H](O)c3ccc(c(Cl)c3)Oc3cc2cc(c3O[C@@H]2O[C@H](CO)[C@@H](O)[C@H](O)[C@H]2O[C@H]2C[C@](C)(N)[C@H](O)[C@H](C)O2)Oc2ccc(cc2Cl)[C@H]1O [Vancomycin, reference compound]",MIC90,[7]; [11],3.13 mg/L
same,MIC99,[7]; [11],6.25 mg/L
same,MIC,"[7]; Staphylococcus aureus, ATCC29213, 24 h, read-out: MIC95",3.13 mg/L
same,MIC,"[7]; Staphylococcus aureus, ATCC29213, 24 h, read-out: MIC, Visual",3.12 mg/L
same,MIC90,[8]; [12],0.39 mg/L
same,MIC99,[8]; [12],0.78 mg/L
same,MIC,"[8]; Staphylococcus aureus, ATCC33591, 24 h, read-out: MIC95",0.39 mg/L
same,MIC,"[8]; Staphylococcus aureus, ATCC33591, 24 h, read-out: MIC, Visual",0.391 mg/L
same,MIC90,[9]; [13],12.5 mg/L
same,MIC99,[9]; [13],25 mg/L
same,MIC,"[9]; Staphylococcus aureus, ATCC700699, 48 h, read-out: MIC95",25 mg/L
same,MIC,"[9]; Staphylococcus aureus, ATCC700699, 48 h, read-out: MIC, Visual",25 mg/L
